According to PMC6270976, “Pharmacokinetic Study in Mice of Galphimine-A, an Anxiolytic Compound from Galphimia glauca” (Molecules, 2014):
Entries after “also recorded” stand apart in the source; their conditions may differ. Like-named read-outs stand apart in the source and are kept apart here.

Assays:
[1] = Brain tissue pharmacokinetics of G–A after a single oral dose in ICR mice (HPLC, PKSolver); type: in vivo
Procedure: Eighty-eight mice were randomly divided into 11 groups with eight individuals each. All animals were orally administered with 200 mg/kg of G–A dissolved in 5% β-cyclodextrin solution. Under ether-induced anesthesia, blood samples were obtained from the retroorbital sinus with heparinized cannula at different times (0, 5, 10, 15, 30, 60, 120, 240, 480, 720, and 1,440 min) after G–A administration. The volume of the blood samples was of 700 to 1000 microliters, which were collected in heparinized centrifuge microtubes, after the blood was centrifuged for 5 min at 1,720 × g.
Plasma samples were frozen at −70 °C, and lyophilized after. The obtained dry product was used to extract and measure the amount of G–A. After obtaining blood samples, all animals were perfused with isotonic saline solution (ISS) via cardiac puncture; the femoral vein was used to eliminate the perfusion liquid, until it appeared clear. Subsequently, the brain was removed. The brains were weighed fresh and frozen at −70 °C and then lyophilized. Once dry, the brains were weighed again to determine the volume of water contained in each brain. Dry tissue was ground in a mortar, and G–A was later extracted.
Dry pulverized samples (plasma and brain) were extracted with methanol (HPLC grade, Merck). The extracts were filtered with a 0.45 μm, 13 mm Teflon membrane (Millex®-LCR), and 20 μL of filtrate were injected into the HPLC equipment. Measurements were performed in a Waters 2695 HPLC, with diode array detector (Waters 2996) and the Empower Pro 1.0 software. A Chromolith Performance® RP-18e 100 × 4.6 mm (Merck KGaA Darmstadt, Germany) was used. The mobile phase consisted of a mixture of acetonitrile:water (55:45, 1 mL/min). G–A concentration was obtained by comparison with a pre-built calibration curve at λ = 220 nm.
To evaluate the suitability of the assay for pharmacokinetic studies, 200 mg/kg of G–A was orally administered to mice. Eight animals were used in each group different times (0, 5, 10, 15, 30, 60, 120, 240, 480, 720, and 1440 min). Pharmacokinetic calculations were performed using the observed data. All data were subsequently processed using PKSolver add-in program for Microsoft Excel written in Visual Basic for Applications. […]
The pharmacokinetic model selection either one or two-comparment, were used both the Akaike information criterion (AIC) and Schwarz criterion (SC). Using the criteria, one may select the model with which to reach a lower value of AIC or SC, which means that the chosen model is more parsimonious (less parameters required) and best fits the data (low error prediction).

[2] = Stability of G–A in mouse plasma under handling conditions; type: in vitro ADME; details: for Observed Concentration ± S.D.: n = 6
Procedure: (§1) The stability of G–A in mice plasma and brain was assessed by analyzing replicates (n = 6) of QC samples at concentrations of 0.8, 4.0 and 10 μg/mL for mice plasma and brain. The investigation covered expected conditions during all of the sample storage and process periods, which included the stability data from freeze/thaw, bench-top, autosampler and long–term stability test. For all stability studies, freshly prepared and stability testing QC samples were evaluated by using freshly prepared standard curves for the measurement. The concentrations obtained from all stability studies were compared with the freshly prepared QC samples, and the percentage concentration deviation was calculated. The analytes were considered stable in mouse plasma and brain when the concentration difference between the freshly prepared samples and the stability samples was less than 15%.

[3] = Stability of G–A in mouse brain tissue homogenate under handling conditions; type: in vitro ADME; details: for Observed Concentration ± S.D.: n = 6
Procedure: as §1

[4] = cited from earlier work
[5] = brain tissue, oral 200 mg/kg, n = 8
[6] = mouse, brain tissue, oral 200 mg/kg, n = 8
[7] = plasma, 3 Freeze/thaw cycles (−70 °C), nominal 0.80 μg/mL
[8] = plasma, 3 Freeze/thaw cycles (−70 °C), nominal 4.00 μg/mL
[9] = plasma, 3 Freeze/thaw cycles (−70 °C), nominal 10.0 μg/mL
[10] = plasma, Autosampler stability (4 °C; 8 h), nominal 0.80 μg/mL
[11] = plasma, Autosampler stability (4 °C; 8 h), nominal 4.00 μg/mL
[12] = plasma, Long–term stability (−70 °C; 1 month), nominal 0.80 μg/mL
[13] = plasma, Long–term stability (−70 °C; 1 month), nominal 4.00 μg/mL
[14] = plasma, Long–term stability (−70 °C; 1 month), nominal 10.0 μg/mL
[15] = brain tissue, 3 Freeze/thaw cycles (−70 °C), nominal 0.80 μg/mL
[16] = brain tissue, 3 Freeze/thaw cycles (−70 °C), nominal 4.00 μg/mL
[17] = brain tissue, 3 Freeze/thaw cycles (−70 °C), nominal 10.0 μg/mL
[18] = brain tissue, Autosampler stability (4 °C; 8 h), nominal 0.80 μg/mL
[19] = brain tissue, Autosampler stability (4 °C; 8 h), nominal 4.00 μg/mL
[20] = brain tissue, Autosampler stability (4 °C; 8 h), nominal 10.0 μg/mL
[21] = brain tissue, Long–term stability (−70 °C; 1 month), nominal 0.80 μg/mL
[22] = brain tissue, Long–term stability (−70 °C; 1 month), nominal 4.00 μg/mL
[23] = brain tissue, Long–term stability (−70 °C; 1 month), nominal 10.0 μg/mL

COC(=O)[C@@]12CC[C@]3(C)C([C@H](O)[C@H](O)[C@@]4([C@@H](C)O)COC(=O)C=C[C@H]43)[C@@]1(C)CC[C@@]1(C)CC=C(C)C[C@]12O (some centres unmarked) [G–A, galphimine-A]
G–A Concentration Brain ([1]; 1440 min (24 h) after single oral 200 mg/kg, mean ± S.E.M., n = 8, 200 mg/kg): 0.32 ± 0.14 µg/mL | Tmax ([1]; ICR, mouse, brain, po, 200 mg/kg, brain tissue, oral 200 mg/kg, n = 8, read-out: Tmax (converted)): 1.36 h | A [1, 5]: 2.98 µg/mL | V/F [1, 5]: 68.16 (mg/kg)/(μg/mL) | k10 [1, 5]: 0.0008 min⁻¹ | ka [1, 5]: 0.051 min⁻¹ | Tmax ([1]; brain tissue, oral 200 mg/kg, n = 8, 200 mg/kg): 1.36 h | AUC(0-inf) [1, 6]: 58700 ng·h/mL | CL/F [1, 6]: 57 mL/min/kg | Cmax [1, 6]: 2740 ng/mL | MRT [1, 6]: 20.3 h | AUC(0-t) ([1]; mouse, brain tissue, oral 200 mg/kg, n = 8, read-out: AUC0-1440 min (converted)): 31900 ng·h/mL | concentration at 5 min ([1]; mouse, brain, 5 min after single oral 200 mg/kg, mean ± S.E.M., n = 8): 0 ng/mL | concentration at 10 min ([1]; mouse, brain, 10 min after single oral 200 mg/kg, mean ± S.E.M., n = 8): 880 ± 330 ng/mL | concentration at 15 min ([1]; mouse, brain, 15 min after single oral 200 mg/kg, mean ± S.E.M., n = 8): 1480 ± 580 ng/mL | concentration at 30 min ([1]; mouse, brain, 30 min after single oral 200 mg/kg, mean ± S.E.M., n = 8): 3440 ± 500 ng/mL | concentration at 60 min ([1]; mouse, brain, 60 min after single oral 200 mg/kg, mean ± S.E.M., n = 8): 3010 ± 590 ng/mL | concentration at 120 min ([1]; mouse, brain, 120 min after single oral 200 mg/kg, mean ± S.E.M., n = 8): 2500 ± 580 ng/mL | concentration at 240 min ([1]; mouse, brain, 240 min after single oral 200 mg/kg, mean ± S.E.M., n = 8): 2180 ± 480 ng/mL | concentration at 480 min ([1]; mouse, brain, 480 min after single oral 200 mg/kg, mean ± S.E.M., n = 8): 1780 ± 370 ng/mL | concentration at 720 min ([1]; mouse, brain, 720 min after single oral 200 mg/kg, mean ± S.E.M., n = 8): 550 ± 180 ng/mL | concentration at 1440 min ([1]; mouse, brain, 1440 min (24 h) after single oral 200 mg/kg, mean ± S.E.M., n = 8): 320 ng/mL | Time analyzable in the autosampler tray with acceptable precision and accuracy ([2]; plasma samples, 4 °C): over 8 h | Long-term storage stability (time stable) ([2]; plasma samples, −70 °C): over 1 month | Accuracy Bias [2, 7]: −1.00% | Observed Concentration ± S.D. [2, 7]: 0.79 ± 0.08 µg/mL | Accuracy Bias [2, 8]: 0.25% | Observed Concentration ± S.D. [2, 8]: 4.01 ± 0.14 µg/mL | Accuracy Bias [2, 9]: −0.70% | Observed Concentration ± S.D. [2, 9]: 9.93 ± 0.67 µg/mL | Accuracy Bias [2, 10]: 3.75% | Observed Concentration ± S.D. [2, 10]: 0.83 ± 0.05 µg/mL | Accuracy Bias [2, 11]: −1.75% | Observed Concentration ± S.D. [2, 11]: 3.93 ± 0.43 µg/mL | Observed Concentration ± S.D. ([2]; plasma, Autosampler stability (4 °C; 8 h), nominal 10.0 μg/mL): 10.10 ± 0.85 µg/mL | Accuracy Bias [2, 12]: −3.00% | Observed Concentration ± S.D. [2, 12]: 0.77 ± 0.06 µg/mL | Accuracy Bias [2, 13]: 6.50% | Observed Concentration ± S.D. [2, 13]: 4.26 ± 0.31 µg/mL | Accuracy Bias [2, 14]: −5.70% | Observed Concentration ± S.D. [2, 14]: 9.43 ± 0.83 µg/mL | Freeze/thaw stability ([2]; plasma, three cycles, stored at −70 °C and thawed to room temperature): stable | Time analyzable in the autosampler tray with acceptable precision and accuracy ([3]; brain tissue samples, 4 °C): over 8 h | Long-term storage stability (time stable) ([3]; brain tissue samples, −70 °C): over 1 month | Accuracy Bias [3, 15]: 3.75% | Observed Concentration ± S.D. [3, 15]: 0.83 ± 0.08 µg/mL | Accuracy Bias [3, 16]: 9.00% | Observed Concentration ± S.D. [3, 16]: 4.36 ± 0.34 µg/mL | Accuracy Bias [3, 17]: 3.60% | Observed Concentration ± S.D. [3, 17]: 10.36 ± 0.52 µg/mL | Accuracy Bias [3, 18]: 8.75% | Observed Concentration ± S.D. [3, 18]: 0.87 ± 0.11 µg/mL | Accuracy Bias [3, 19]: −10.0% | Observed Concentration ± S.D. [3, 19]: 3.60 ± 0.33 µg/mL | Accuracy Bias [3, 20]: −1.70% | Observed Concentration ± S.D. [3, 20]: 9.83 ± 0.43 µg/mL | Accuracy Bias [3, 21]: −10.00% | Observed Concentration ± S.D. [3, 21]: 0.72 ± 0.10 µg/mL | Accuracy Bias [3, 22]: −6.75% | Observed Concentration ± S.D. [3, 22]: 3.73 ± 0.41 µg/mL | Accuracy Bias [3, 23]: 4.30% | Observed Concentration ± S.D. [3, 23]: 10.43 ± 0.98 µg/mL | Freeze/thaw stability ([3]; brain tissue, three cycles, stored at −70 °C and thawed to room temperature): stable | Anxiolytic effect ([4]; 15 mg/kg dose administered intraperitoneally): anxiolytic effects | Anxiolytic activity ([4]; among the galphimines): most active; also recorded: highest anxiolytic activity
